ChEMBL document CHEMBL5634136 (Eur J Med Chem, 2023)
Each block holds one compound with its values, some of them ahead of it. Activity calls are given as the source filed them. The calls are words filed in the database; no cut-off is given here.

How the values were obtained:
[1] = target: T1, Epidermal growth factor receptor (Homo sapiens, UniProt P00533, C797S/EX19DEL/T790M); experiment: Inhibition of recombinant EGFR Del19/T790M/C797S mutant (unknown origin) in presence of ATP by TR-FRET assay
[2] = target: Epidermal growth factor receptor (Mus musculus) (UniProt Q01279); experiment: Inhibition of EGFR in mouse KC-0116 cells assessed as downregulation of AKT protein expression level at 1 uM incubated for 24 hrs by Western blotting analysis; type: cell-based
[3] = target: Epidermal growth factor receptor (Mus musculus) (UniProt Q01279); experiment: Inhibition of EGFR in mouse KC-0122 cells assessed as downregulation of EGFR phosphorylation level at 1 uM incubated for 24 hrs by Western blotting analysis; type: cell-based
[4] = Induction of apoptosis in mouse KC-0116 cells assessed as late apoptotic cells at 10 uM incubated for 48 hrs by annexin V-FITC/ PI staining based flow cytometry (reference value: 1 %); type: functional
HCC827 = experiment: Antiproliferative activity against human HCC827 cells harboring EGFR Del19 mutant assessed as inhibition of cell growth incubated for 72 hrs by MTT assay; type: functional, cell-based; conditions: HCC827, 72 h
[5] = target: Epidermal growth factor receptor (Mus musculus) (UniProt Q01279); experiment: Inhibition of EGFR in mouse KC-0122 cells assessed as downregulation of EGFR phosphorylation level incubated for 24 hrs by Western blotting analysis; type: cell-based
[6] = Induction of apoptosis in mouse KC-0116 cells assessed as viable cells at 10 uM incubated for 48 hrs by annexin V-FITC/ PI staining based flow cytometry (reference value: 93.27 %); type: functional; conditions: read-out: Activity
[7] = Antitumor activity against mouse KC-0116 cells xenografted in BALB/c mouse assessed as tumor growth inhibition at 40 mg/kg,po administrated once daily for 10 days relative to control; type: functional; conditions: KC-0116, 240 h, time 10 day, read-out: TGI
[8] = target: Epidermal growth factor receptor (Mus musculus) (UniProt Q01279); experiment: Inhibition of EGFR in mouse KC-0116 cells assessed as downregulation of ERK protein expression level at 1 uM incubated for 24 hrs by Western blotting analysis; type: cell-based
[9] = target: Epidermal growth factor receptor (Mus musculus) (UniProt Q01279); experiment: Inhibition of EGFR in mouse KC-0122 cells assessed as downregulation of ERK protein expression level at 1 uM incubated for 24 hrs by Western blotting analysis; type: cell-based
[10] = Induction of apoptosis in mouse KC-0116 cells assessed as late apoptotic cells at 0.1 uM incubated for 48 hrs by annexin V-FITC/ PI staining based flow cytometry (reference value: 1 %); type: functional
[11] = Antiproliferative activity against mouse KC-0116 cells assessed as inhibition of cell growth incubated for 72 hrs by MTT assay; type: functional, cell-based; conditions: KC-0116, 72 h
[12] = Induction of apoptosis in mouse KC-0116 cells assessed as viable cells at 0.1 uM incubated for 48 hrs by annexin V-FITC/ PI staining based flow cytometry (reference value: 93.27 %); type: functional; conditions: read-out: Activity
[13] = target: Epidermal growth factor receptor (Mus musculus) (UniProt Q01279); experiment: Inhibition of EGFR in mouse KC-0122 cells assessed as downregulation of ERK protein expression level incubated for 24 hrs by Western blotting analysis; type: cell-based
[14] = target: Epidermal growth factor receptor (Mus musculus) (UniProt Q01279); experiment: Inhibition of EGFR in mouse KC-0116 cells assessed as downregulation of AKT protein expression level incubated for 24 hrs by Western blotting analysis; type: cell-based
[15] = target: Epidermal growth factor receptor (Homo sapiens, UniProt P00533, C797S/L858R/T790M); experiment: Inhibition of EGFR L858R/T790M/C797S mutant (unknown origin)
HepG2 = experiment: Antiproliferative activity against human HepG2 cells harboring VEGFR assessed as inhibition of cell growth incubated for 72 hrs by MTT assay; type: functional, cell-based; conditions: HepG2, 72 h
KC-0116 [16] = experiment: Antitumor activity against mouse KC-0116 cells xenografted in BALB/c mouse assessed as reduction in tumor weight at 40 mg/kg,po administrated once daily for 10 days; type: functional, organism-based; conditions: time 10.0 day
[17] = Induction of apoptosis in mouse KC-0116 cells assessed as early apoptotic cells at 0.1 uM incubated for 48 hrs by annexin V-FITC/ PI staining based flow cytometry (reference value: 8.09 %); type: functional
[18] = Induction of apoptosis in mouse KC-0116 cells assessed as early apoptotic cells at 1 uM incubated for 48 hrs by annexin V-FITC/ PI staining based flow cytometry (reference value: 8.09 %); type: functional
[19] = Induction of apoptosis in mouse KC-0116 cells assessed as necrotic cells at 0.1 uM incubated for 48 hrs by annexin V-FITC/ PI staining based flow cytometry (reference value: 0.04 %); type: functional
[20] = Antitumor activity against mouse KC-0116 cells xenografted in BALB/c mouse assessed as tumor growth inhibition at 10 mg/kg,po administrated once daily for 10 days relative to control; type: functional; conditions: KC-0116, 240 h, time 10 day, read-out: TGI
[21] = target: Epidermal growth factor receptor (Mus musculus) (UniProt Q01279); experiment: Inhibition of EGFR in mouse KC-0122 cells assessed as downregulation of AKT protein expression level at 1 uM incubated for 24 hrs by Western blotting analysis; type: cell-based
[22] = Induction of apoptosis in mouse KC-0116 cells assessed as late apoptotic cells at 1 uM incubated for 48 hrs by annexin V-FITC/ PI staining based flow cytometry (reference value: 1 %); type: functional
[23] = target: Epidermal growth factor receptor (Mus musculus) (UniProt Q01279); experiment: Inhibition of EGFR in mouse KC-0116 cells assessed as downregulation of EGFR phosphorylation level at 1 uM incubated for 24 hrs by Western blotting analysis; type: cell-based
[24] = target: T1, Epidermal growth factor receptor; experiment: Inhibition of EGFR Del19/T790M/C797S mutant (unknown origin)
NCI-H1975 = experiment: Antiproliferative activity against human NCI-H1975 cells harboring EGFR L858R/T790M mutant assessed as inhibition of cell growth incubated for 72 hrs by MTT assay; type: functional, cell-based; conditions: NCI-H1975, 72 h
[25] = Induction of apoptosis in mouse KC-0116 cells assessed as viable cells at 1 uM incubated for 48 hrs by annexin V-FITC/ PI staining based flow cytometry (reference value: 93.27 %); type: functional; conditions: Mus musculus, KC-0116, read-out: Activity
[26] = Induction of apoptosis in mouse KC-0116 cells assessed as necrotic cells at 1 uM incubated for 48 hrs by annexin V-FITC/ PI staining based flow cytometry (reference value: 0.04 %); type: functional
[27] = target: Epidermal growth factor receptor (Mus musculus) (UniProt Q01279); experiment: Inhibition of EGFR in mouse KC-0122 cells assessed as downregulation of AKT protein expression level incubated for 24 hrs by Western blotting analysis; type: cell-based
[28] = target: Epidermal growth factor receptor (Mus musculus) (UniProt Q01279); experiment: Inhibition of EGFR in mouse KC-0116 cells assessed as downregulation of EGFR phosphorylation level incubated for 24 hrs by Western blotting analysis; type: cell-based
KC-0116 [29] = experiment: Induction of cell cycle arrest in mouse KC-0116 cells assessed as accumulation of cells at G1 phase at 1 uM incubated for 24 hrs by RNase/PI staining based flow cytometry; type: functional
[30] = Induction of apoptosis in mouse KC-0116 cells assessed as necrotic cells at 10 uM incubated for 48 hrs by annexin V-FITC/ PI staining based flow cytometry (reference value: 0.04 %); type: functional
[31] = target: Epidermal growth factor receptor (Mus musculus) (UniProt Q01279); experiment: Inhibition of EGFR in mouse KC-0116 cells assessed as downregulation of ERK protein expression level incubated for 24 hrs by Western blotting analysis; type: cell-based
[32] = Antiproliferative activity against mouse KC-0122 cells assessed as inhibition of cell growth incubated for 72 hrs by MTT assay; type: functional, cell-based; conditions: KC-0122, 72 h
A-431 = experiment: Antiproliferative activity against human A-431 cells harboring wild type EGFR assessed as inhibition of cell growth incubated for 72 hrs by MTT assay; type: functional, cell-based; conditions: A-431, 72 h
[33] = Toxicity in BALB/c mouse xenografted with mouse KC-0116 cells assessed as change in body weight at 10 mg/kg,po administrated once daily for 10 days; type: organism-based; conditions: in vivo, 240 h, time 10 day
[34] = Induction of apoptosis in mouse KC-0116 cells assessed as early apoptotic cells at 10 uM incubated for 48 hrs by annexin V-FITC/ PI staining based flow cytometry (reference value: 8.09 %); type: functional
[35] = Toxicity in BALB/c mouse xenografted with mouse KC-0116 cells assessed as change in body weight at 40 mg/kg,po administrated once daily for 10 days; type: organism-based; conditions: in vivo, 240 h, time 10 day

Chain of Epidermal growth factor receptor (Mus musculus) (Q01279 whole entry): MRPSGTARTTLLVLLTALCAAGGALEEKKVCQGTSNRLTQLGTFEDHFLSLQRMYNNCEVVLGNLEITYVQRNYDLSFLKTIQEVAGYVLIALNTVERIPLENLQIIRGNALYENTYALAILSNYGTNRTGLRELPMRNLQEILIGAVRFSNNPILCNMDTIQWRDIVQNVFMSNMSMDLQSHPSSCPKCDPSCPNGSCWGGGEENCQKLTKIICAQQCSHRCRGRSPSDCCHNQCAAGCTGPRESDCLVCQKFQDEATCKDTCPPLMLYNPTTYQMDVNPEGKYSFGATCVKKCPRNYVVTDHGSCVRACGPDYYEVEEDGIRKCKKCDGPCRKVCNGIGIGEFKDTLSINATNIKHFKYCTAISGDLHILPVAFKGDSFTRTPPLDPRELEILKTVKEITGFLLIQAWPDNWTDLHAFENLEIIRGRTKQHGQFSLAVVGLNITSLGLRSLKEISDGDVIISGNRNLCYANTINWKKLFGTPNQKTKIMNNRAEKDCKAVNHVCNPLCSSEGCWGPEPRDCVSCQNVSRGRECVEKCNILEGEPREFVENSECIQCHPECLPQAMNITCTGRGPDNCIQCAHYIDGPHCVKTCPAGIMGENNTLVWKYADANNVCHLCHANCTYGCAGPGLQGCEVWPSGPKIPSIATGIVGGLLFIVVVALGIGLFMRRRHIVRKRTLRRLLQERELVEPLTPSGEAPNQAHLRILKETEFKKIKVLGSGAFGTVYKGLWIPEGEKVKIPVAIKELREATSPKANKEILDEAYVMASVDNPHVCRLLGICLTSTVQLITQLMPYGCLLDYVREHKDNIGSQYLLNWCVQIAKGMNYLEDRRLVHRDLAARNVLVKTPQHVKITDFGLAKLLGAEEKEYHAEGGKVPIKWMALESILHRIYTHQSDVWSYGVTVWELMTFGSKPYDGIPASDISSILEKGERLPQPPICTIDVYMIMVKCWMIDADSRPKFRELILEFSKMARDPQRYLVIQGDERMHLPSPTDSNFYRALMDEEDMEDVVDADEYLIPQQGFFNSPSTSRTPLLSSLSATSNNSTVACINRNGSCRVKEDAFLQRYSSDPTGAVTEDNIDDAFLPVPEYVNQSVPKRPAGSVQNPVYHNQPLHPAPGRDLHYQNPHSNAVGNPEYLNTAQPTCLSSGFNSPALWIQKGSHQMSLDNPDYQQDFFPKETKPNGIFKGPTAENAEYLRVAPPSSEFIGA
T1 sequence (P00533 whole entry, looked up, stated change not applied): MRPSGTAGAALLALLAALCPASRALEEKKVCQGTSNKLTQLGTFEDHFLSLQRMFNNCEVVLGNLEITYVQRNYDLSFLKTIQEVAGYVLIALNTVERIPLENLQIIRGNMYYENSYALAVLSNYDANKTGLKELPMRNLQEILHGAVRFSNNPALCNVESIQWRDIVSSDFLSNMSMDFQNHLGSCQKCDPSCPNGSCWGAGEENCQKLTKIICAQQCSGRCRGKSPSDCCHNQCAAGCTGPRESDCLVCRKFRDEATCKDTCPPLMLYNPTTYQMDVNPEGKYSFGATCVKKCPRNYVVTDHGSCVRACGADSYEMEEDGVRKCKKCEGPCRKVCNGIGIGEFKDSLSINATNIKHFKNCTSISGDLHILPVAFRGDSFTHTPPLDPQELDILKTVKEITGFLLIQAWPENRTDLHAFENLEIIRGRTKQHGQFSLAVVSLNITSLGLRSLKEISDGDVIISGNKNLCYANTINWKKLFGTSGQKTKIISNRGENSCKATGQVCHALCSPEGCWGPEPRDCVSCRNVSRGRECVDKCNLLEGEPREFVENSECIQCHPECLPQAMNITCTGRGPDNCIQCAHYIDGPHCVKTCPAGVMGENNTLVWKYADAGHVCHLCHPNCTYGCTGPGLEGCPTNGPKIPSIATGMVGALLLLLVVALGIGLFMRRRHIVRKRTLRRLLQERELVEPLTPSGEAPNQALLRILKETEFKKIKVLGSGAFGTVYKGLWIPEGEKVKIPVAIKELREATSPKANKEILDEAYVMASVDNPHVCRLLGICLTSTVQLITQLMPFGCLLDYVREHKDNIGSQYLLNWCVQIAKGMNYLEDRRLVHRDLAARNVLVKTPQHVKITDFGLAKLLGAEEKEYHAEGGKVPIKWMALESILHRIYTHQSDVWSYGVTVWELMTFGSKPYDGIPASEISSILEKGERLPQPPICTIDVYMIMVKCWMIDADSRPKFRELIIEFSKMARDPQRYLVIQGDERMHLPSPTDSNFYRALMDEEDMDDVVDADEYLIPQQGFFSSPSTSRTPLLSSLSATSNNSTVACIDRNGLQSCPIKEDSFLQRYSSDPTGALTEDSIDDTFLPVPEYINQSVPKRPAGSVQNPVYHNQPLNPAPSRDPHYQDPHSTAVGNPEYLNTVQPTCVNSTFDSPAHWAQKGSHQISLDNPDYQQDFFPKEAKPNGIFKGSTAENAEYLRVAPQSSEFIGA
Chain of Epidermal growth factor receptor (Homo sapiens, UniProt P00533, C797S/L858R/T790M) (P00533 25-1210 T790M/C797S/L858R limits assumed): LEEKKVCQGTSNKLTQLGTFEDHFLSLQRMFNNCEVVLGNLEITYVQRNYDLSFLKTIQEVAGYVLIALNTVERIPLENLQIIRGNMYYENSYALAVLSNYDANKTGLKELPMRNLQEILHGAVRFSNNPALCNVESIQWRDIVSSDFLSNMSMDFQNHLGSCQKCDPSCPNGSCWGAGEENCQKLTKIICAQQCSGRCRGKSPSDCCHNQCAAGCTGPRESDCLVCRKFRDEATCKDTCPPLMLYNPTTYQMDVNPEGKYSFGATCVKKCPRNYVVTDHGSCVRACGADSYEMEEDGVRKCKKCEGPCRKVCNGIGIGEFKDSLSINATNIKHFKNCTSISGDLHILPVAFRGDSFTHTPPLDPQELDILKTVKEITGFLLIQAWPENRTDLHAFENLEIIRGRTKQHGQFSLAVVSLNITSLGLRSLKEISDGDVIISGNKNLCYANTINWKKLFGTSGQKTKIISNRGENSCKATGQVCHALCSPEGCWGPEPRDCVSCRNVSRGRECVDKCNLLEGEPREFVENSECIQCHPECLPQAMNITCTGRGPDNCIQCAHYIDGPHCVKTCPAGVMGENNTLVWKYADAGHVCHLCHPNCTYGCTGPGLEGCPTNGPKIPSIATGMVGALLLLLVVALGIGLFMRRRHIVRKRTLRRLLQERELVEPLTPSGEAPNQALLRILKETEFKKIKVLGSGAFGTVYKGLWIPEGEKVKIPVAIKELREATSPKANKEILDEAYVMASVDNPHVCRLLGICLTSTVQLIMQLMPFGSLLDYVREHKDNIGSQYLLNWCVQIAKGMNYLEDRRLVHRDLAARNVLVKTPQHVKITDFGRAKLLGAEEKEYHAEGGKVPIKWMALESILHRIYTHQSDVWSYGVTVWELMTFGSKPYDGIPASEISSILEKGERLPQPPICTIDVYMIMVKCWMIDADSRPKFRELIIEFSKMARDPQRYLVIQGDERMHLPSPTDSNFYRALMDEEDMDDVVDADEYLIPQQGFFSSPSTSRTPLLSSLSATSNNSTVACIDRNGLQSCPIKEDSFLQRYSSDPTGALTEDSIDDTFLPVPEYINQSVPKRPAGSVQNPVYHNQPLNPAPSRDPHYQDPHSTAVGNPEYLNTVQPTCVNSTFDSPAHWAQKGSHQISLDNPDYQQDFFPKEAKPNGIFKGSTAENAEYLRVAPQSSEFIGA

Structure (SMILES): CC(C)n1c2cc(Nc3ccnc(-c4cnn(S(=O)(=O)C5CC5)c4)n3)ncc2c2c(OCC(F)(F)F)cc(N3CCN(C)CC3)cc21
- IC50 [1]: 0.28 nM

- inhibition [2]: Active
- inhibition [3]: Active
- IC50 (HCC827): 160 nM
- inhibition [5]: Dose-Dependent Effect
- inhibition [8]: Active
- inhibition [9]: Active
- inhibition [13]: Dose-Dependent Effect
- inhibition [14]: Dose-Dependent Effect
- IC50 [15]: 113 nM
- IC50 (HepG2): 1780 nM
- inhibition [21]: Active
- inhibition [23]: Active
- IC50 [24]: 18 nM
- IC50 (NCI-H1975): 1000 nM
- inhibition [27]: Dose-Dependent Effect
- inhibition [28]: Dose-Dependent Effect
- inhibition [31]: Dose-Dependent Effect
- IC50 (A-431): 1990 nM
Structure (SMILES): CN(C)C1CCN(c2ccc(Nc3nccc(-c4cn(C)c5ccccc45)n3)cc2NS(C)(=O)=O)CC1
- Activity [4]: 0.77%
- viability at 10 µM [6]: 1.53%
- inhibition in vivo at 40 mg/kg [7]: 77.6%
- Activity [10]: 1.42%
- IC50 [11]: 160 nM
- viability at 0.1 µM [12]: 92.9%
- Activity (KC-0116 [16]): Active
- Activity [17]: 5.5%
- Activity [18]: 25.29%
- Activity [19]: 0.08%
- inhibition in vivo at 10 mg/kg [20]: 28.4%
- Activity [22]: 2.66%
- viability at 1 µM [25]: 72.9%
- Activity [26]: 0.17%
- Activity (KC-0116 [29]): Active
- Activity [30]: 0.09%
- IC50 [32]: 170 nM
- Activity [33]: Non-Toxic
- Activity [34]: 91.42%
- Activity [35]: Non-Toxic
